In patent US20110142842A1, “POLYPEPTIDES” (Medinnova AS, priority 2007, published 2011):

Legend:
HLA-A*0201 [1] = target: HLA-A*0201 (Homo sapiens, UniProt P04439, /I218V/L300P/L318F/N151K/N90K/P208A/P217A/Q86G/Q94H/R138H/R169H/T345S); assay: REVEAL MHC molecule binding assay (ProImmune); conditions: value of the unmodified old peptide listed beside the modified peptide ID
HLA-A*0201 [2] = target: HLA-A*0201 (Homo sapiens, UniProt P04439, D140Y/D185E/D98H/E176V/E277Q/G131W/G231S/I119V/I121R/I166T/I218V/L300P/L318F/N151K/N90K/P208A/P217A/Q86G/Q94H/R138H/R169H/T345S); assay: REVEAL MHC molecule binding assay (ProImmune); conditions: level of binding relative to pass/fail control binder designated 100%
[3] = system: autologous responder cells (monocyte-depleted PBMC) from HLA-A*0201-negative donors; assay: Induction of pentamer positive CD8+ T cells by peptide-pulsed HLA-A*0201-transfected moDC (Example 8); format: cell-based, human
Procedure: MoDC transfected with HLA-A*0201 mRNA were harvested 18 hours after transfection and resuspended in 1-2 ml of serum-free DC-medium containing 50 μg/ml peptide, such as MART-1 or peptide #19. The cells were incubated at 37° C., 5% CO2 for 4 hours, then washed once in serum-free RPMI.
Stimulator and responder cells were seeded at a stimulator to responder (S:R) ratio of 1:10, with 3.0×10^6 responders per well in serum-free DC medium containing 10 ng/ml IL-7 (PeproTech EC Ltd.), 50 pg/ml IL-12 (PeproTech EC Ltd.), and PPD at 1 μg/ml.
On day 12 the responder cells were harvested and analyzed for the presence of pentamer positive cells. The cells were either sorted or restimulated.
Restimulation was done with autologous EBV-LCL transfected with HLA-A*0201 mRNA 12-24 hours prior to stimulation, harvested and resuspended in 1-2 ml of serum-free X-Vivo 20 (Cambrex) containing the same peptide as added on day 0 at 20 μg/ml, and incubated for 4 hours at 37° C., 5% CO2. Following incubation, the EBV-LCL were washed once in serum-free RPMI.
From day 12 of co-culture with stimulator cells, the responders were harvested, counted and analyzed for the presence of pentamer positive cells weekly. The responder cells were either restimulated, as described above, or the pentamer positive cells were sorted and expanded as described below.
Monocyte-derived dendritic cells (moDC) from HLA-A*0201-negative donors were transfected with HLA-A*0201 mRNA after maturation. 18-24 hours post-transfection the cells were pulsed with the peptides indicated in Table 2 for four hours, before co-culturing them with autologous responder cells (monocyte-depleted PBMC). On day 12 and day 19 and in some cases at day 26 of co-culture, the cells were harvested, stained with relevant peptide-MHC-pentamer and analyzed by flow cytometry. The percentage of pentamer positive cells was calculated by dividing the number of pentamer positive cells by the number of CD8+ cells. On day 12 and day 19, the cells were restimulated with autologous EBV-cells that were transfected with HLA-A*0201 mRNA and loaded for four hours with the relevant peptides indicated in Table 2.

% Pass/fail (Old Peptide) (HLA-A*0201 [1]): 295.4% | % Pass/fail control (HLA-A*0201 [2]): 295.4%
Sequence: SVDPRIANV [82] (homo sapiens) [Peptide 82, from MPO]
Day 12 % pent+/CD8+ ([3]; day 12 of co-culture): 0.04% | Day 19 % pent+/CD8+ ([3]; day 19 of co-culture, after restimulation): 0.19% | Day 12 Donors ([3]; donors with positive response / donors tested, day 12): 1/2 | Day 19 Donors ([3]; donors with positive response / donors tested, day 19): 1/2
